In ChEMBL document CHEMBL3045698, “Structure and synthesis of a potent glutamate receptor antagonist in wasp venom” (Proc Natl Acad Sci U S A, 1988):
Calls of active or inactive are those of the source. No cut-off for these calls is given here.

Assays:
[1] = system: Schistocerca gregaria; assay: Inhibition of quisqualate-sensitive glutamate receptor in Schistocerca gregaria (desert locust) muscle assessed as reduction in neurally-evoked teitch contraction of locust metathoracic retractor unguis muscle at 0.1 Hz to 0.6 Hz stimulation frequency at 25 uM
[2] = system: Schistocerca gregaria; assay: Inhibition of quisqualate-sensitive glutamate receptor in Schistocerca gregaria (desert locust) muscle assessed as reduction in glutamate-evoked teitch contraction of locust metathoracic retractor unguis muscle at 0.1 Hz to 0.6 Hz stimulation frequency at 10 uM

SMILES | inhibition [1] | inhibition [2] [%]
CCCC(=O)N[C@@H](Cc1ccc(O)cc1)C(=O)NCCCCNCCCNCCCN | Active | > 90
CCCC(=O)N[C@@H](Cc1ccc(O)cc1)C(=O)NCCCNCCCNCCCCN | Active | –
CCCC(=O)N[C@@H](Cc1ccc(O)cc1)C(=O)NCCCNCCCCNCCCN | Active | –
